These results are taken from EP4585216A1, “HETEROCYCLIC COMPOUNDS FOR THE TREATMENT OF FATTY LIVER DISEASE” (ScandiEdge Therapeutics AB, priority 2024, dated 2025).

Assay [1] addresses T1, pyruvate kinase liver (PKL) (Homo sapiens, UniProt P30613).
T1 construct: endogenous in cells; host or cells: HepG2 PKM2 CRISPR KO (HepG2 KO) cells; lysate in CelLytic M or treated whole cells
Kind of assay: Pyruvate kinase activity in treated HepG2 PKM2 CRISPR KO cells. The conditions noted are these: 10 µM for 4 h; for effect on PK activity in HepG2 KO cells (in words): compared to the control. Format: cell-based. The method, then: (§1) HepG2 WT and HepG2 KO cells were lysed, and protein lysate was prepared with CelLytic M (C2978, Sigma-Aldrich) lysis buffer. Protein lysate was treated with 10 µM of the drugs and the pyruvate kinase activity on protein lysate was measured using Pyruvate Kinase Assay Kit (ab83432, abeam) following manufacturer's instruction. 2×10^4 HepG2 WT cells and 1×10^5 HepG2 KO cells were seeded into a 96-well plate for measuring pyruvate kinase activity in the cells. The cells were treated with 10-20µM of drugs for 4h and washed with 250µl PBS. Cells were lysed with 50 µl PK assay buffer (ab83432, abcam) and start reaction and kinetic O.D measurement was performed on 50µl PK assay buffer containing the assay component (ab83432, abcam). O.D values were measured with microplate reader (Hidex Sense Beta Plus) at 570nm wavelength. DMSO was used as control.
(§2) The effect of the target compounds was studied on liver cell line HepG2. HepG2 expresses two different pyruvate kinases (PK), pyruvate kinase muscle (PKM2) and pyruvate kinase liver (PKL). While most cells express PKM, liver cells further express PKL. […] In addition to HepG2 KO cell, HepG2 wild-type (HepG2 WT) cells were also used.

Assay [2] has as its system pyruvate kinase (PK). Nature of the assay: Pyruvate kinase activity in treated HepG2 WT cells. It counts as cell-based. The conditions noted are these: 10 µM for 4 h; for effect on PK activity in HepG2 WT cells (in words): compared to the control. The method, then:
as §1, §2

Assay [3] concerns the target T1, pyruvate kinase liver (PKL). Kind of assay: Pyruvate kinase activity in HepG2 PKM2 CRISPR KO protein lysate. The conditions noted are these: for inhibition at 10 µM / reduction in PK activity of HepG2 KO protein lysate: compared to the control (DMSO); for inhibition at 10 µM: read-out: reduction in PK activity of HepG2 KO protein lysate; for reduction in PK activity of HepG2 KO protein lysate / PK activity of HepG2 KO protein lysate (in words): 10 µM; for PK activity of HepG2 KO protein lysate (in words): batches 4 and 5. It counts as biochemical. As for the experimental part:
as §1, §2

Assay [4] has as its system pyruvate kinase (PK). Nature of the assay: Pyruvate kinase activity in HepG2 WT protein lysate. Format: biochemical. The conditions noted are these: 10 µM; for reduction in PK activity of HepG2 WT protein lysate: compared to the control (DMSO); for PK activity of HepG2 WT protein lysate (in words): batches 4 and 5. The method, then:
as §1, §2

The next assay deals with HepG2 cells. Kind of assay: TAG measurement in DNL steatosis model. Format: cell-based. The conditions noted are these: for reduction in TAG/MTT ratio / TAG content (in words): 10 µM for 1 week; for reduction in TAG/MTT ratio: compared to the control (DMSO). As for the experimental part: HepG2 wild type cells were purchased from genome engineering company Synthego. Cells were maintained with growth media RPMI 1640 (R2405, Sigma-Aldrich) and supplemented with 10 % fetal bovine serum (FBS, F7524, Sigma-Aldrich), 1 % penicillin-streptomycin (P/S media, P4333, Sigma-Aldrich). Steatosis induction media was prepared as DMEM high glucose (D0819, Sigma-Aldrich) with 10% FBS, 1% P/S media supplemented with 10µg/ml insulin (I9278, Sigma-Aldrich), and 10µM T0901317 (T2320, Sigma-Aldrich) for one week. HepG2 cells were seeded 6×10^4 cells per well into a 96-well plate for TAG and MTT assay after steatosis and 1×10^6 cells per well into 6-well plate for western blot analysis after steatosis. HepG2 cells were incubated with steatosis induce media (SM) for one week by 3 day + 2 day + 2 day with total three times media exchange.
HepG2 cells were seeded at 6×10^4 cells per well into 96-well plate and induced steatosis for one week with designated concentration of small molecules (this will be referred to as a DNL steatosis model). After steatosis induction, cells were washed with 200 µl of PBS and triglyceride contents was measured by Triglyceride Assay Kit - Quantification (ab65336, Abeam) following manufacturer's instruction. Optical density (O.D) values were detected with microplate reader at 570 nm (Hidex Sense Beta Plus).
5 mg/ml MTT (M2128, Sigma-Aldrich) solution in PBS (10 µL) was added to each well for MTT assay. After 1 hr, MTT solution and all media were removed from the wells. 100 µl of DMSO was added and mixed to dissolve the formazan crystals. Cell viability was analysed by measuring the absorbance of the dissolved formazan in a microplate reader at a wavelength of 570 nm with microplate reader (Hidex Sense Beta Plus). DMSO was used as control.

Molecules are shown by their SMILES.

T1 sequence (P30613 1-543 isoform P30613-2): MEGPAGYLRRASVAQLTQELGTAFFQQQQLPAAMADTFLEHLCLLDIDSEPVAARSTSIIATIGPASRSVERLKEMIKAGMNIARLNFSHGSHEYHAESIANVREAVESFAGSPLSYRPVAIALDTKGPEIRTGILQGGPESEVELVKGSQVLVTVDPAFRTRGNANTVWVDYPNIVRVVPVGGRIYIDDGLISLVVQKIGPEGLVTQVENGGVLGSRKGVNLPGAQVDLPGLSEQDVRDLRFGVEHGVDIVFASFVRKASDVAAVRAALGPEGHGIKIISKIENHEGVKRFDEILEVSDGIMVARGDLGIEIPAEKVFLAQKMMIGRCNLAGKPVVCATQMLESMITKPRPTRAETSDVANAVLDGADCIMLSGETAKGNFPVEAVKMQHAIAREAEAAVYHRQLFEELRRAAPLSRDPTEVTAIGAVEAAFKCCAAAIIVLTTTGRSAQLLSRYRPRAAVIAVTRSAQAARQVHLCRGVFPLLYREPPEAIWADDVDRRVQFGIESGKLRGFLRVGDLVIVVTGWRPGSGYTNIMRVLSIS

As for `COc1cc2c(cc1OC)N(Cc1ccccc1)S(=O)(=O)c1cc(OC)c(OC)cc1-2` [SET-08, 6-benzyl-2,3,8,9-tetramethoxy-6H-dibenzo[c,e][1,2]thiazine 5,5-dioxide], the “effect on PK activity in HepG2 KO cells (in words)” value in assay [1] is “did not affect the PK activity”. Besides, the “effect on PK activity in HepG2 WT cells (in words)” value with pyruvate kinase (PK) [2] was “did not affect the PK activity”.
Regarding `O=S1(=O)c2cc(O)c(O)cc2-c2cc(O)c(O)cc2N1Cc1ccccc1` [SET-09, 6-benzyl-2,3,8,9-tetrahydroxy-6H-dibenzo[c,e][1,2]thiazine 5,5-dioxide], the inhibition at 10 µM in assay [3] is 70.2%. Further, in the assay with pyruvate kinase (PK) [4], the “reduction in PK activity of HepG2 WT protein lysate” value turned out to be 42.6%. Besides, the “reduction in TAG/MTT ratio” value in the assay on HepG2 cells was found to be 21.3%.
For the compound `O=S1(=O)Nc2cc(O)c(O)cc2-c2cc(O)c(O)cc21` [SET-10, 2,3,8,9-tetrahydroxy-6H-dibenzo[c,e][1,2]thiazine 5,5-dioxidee], the inhibition at 10 µM in assay [3] is 29.4%. In the assay on pyruvate kinase (PK) [4], the “reduction in PK activity of HepG2 WT protein lysate” value is 28.7%. The “effect on PK activity in HepG2 KO cells (in words)” value in assay [1] is on record as “did not affect the PK activity”. Moreover, in the assay on pyruvate kinase (PK) [2], the “effect on PK activity in HepG2 WT cells (in words)” value is “did not affect the PK activity”.
`O=S(=O)(NCc1ccc(F)cc1)c1cc(O)c(O)cc1-c1ccc(O)c(O)c1` [SET-13, N-(4-fluorobenzyl)-3',4,4',5-tetrahydroxy-[1,1'-biphenyl]-2-sulfonamide]: in assay [3], the inhibition at 10 µM was found to be 70.2%. Further, the “reduction in PK activity of HepG2 WT protein lysate” value in the assay with pyruvate kinase (PK) [4] stood at 15.8%. Besides, the “reduction in TAG/MTT ratio” value in the assay with HepG2 cells is 21.9%.
The like results for `O=S(=O)(NCc1ccccc1)c1cc(O)c(O)cc1-c1ccc(O)c(O)c1` [SET-15, N-benzyl-3',4,4',5-tetrahydroxy-[1,1'-biphenyl]-2-sulfonamide] were, in that order, 59.1%, 25.4% and 26.8%.
With `COc1ccc(CN2c3cc(OC)c(OC)cc3-c3cc(OC)c(OC)cc3S2(=O)=O)cc1` [SET-18, 2,3,8,9-tetramethoxy-6-(4-methoxybenzyl)-6H-dibenzo[c,e][1,2] thiazine 5,5-dioxide], in assay [1] (HepG2, read-out: inhibition of PK activity in HepG2 KO cells), the inhibition at 10 µM came out at 7.5%. In addition, the “inhibition of PK activity in HepG2 WT cells” value in the assay with pyruvate kinase (PK) [2] is recorded as 6.2%.
Regarding `COc1cc(-c2ccc(C(F)(F)F)cc2)c(S(=O)(=O)NCc2ccccc2)cc1OC` [SET-26, N-benzyl-4,5-dimethoxy-4'-(trifluoromethyl)-[1,1'-biphenyl]-2-sulfonamide], the inhibition at 10 µM in assay [3] was determined as 8%.
On the same count and under the same terms, to `COc1cc(Br)c(S(=O)(=O)NCc2cn(CC(=O)c3ccccc3)nn2)cc1OC` [SET-27A, 2-bromo-4,5-dimethoxy-N-((1-(2-xox-2-phenylethyl)-1H-1,2,3-triazol-4-yl)methyl) benzenesulfonamide] belongs 4.3%; to `COc1cc(Br)c(S(=O)(=O)NCc2cn(Cc3ccccc3)nn2)cc1OC` [SET-35A, N-((1-benzyl-1H-1,2,3-triazol-4-yl)methyl)-2-bromo-4,5-dimethoxybenzenesulfonamide], 4.4%.
Turning to `O=S(=O)(NCc1ccc(F)cc1)c1cc(O)c(O)cc1-c1ccc(C(F)(F)F)cc1` [SET-57, N-(4-fluorobenzyl)-4,5-dihydroxy-4'-(trifluoromethyl)-[1,1'-biphenyl]-2-sulfonamide], the inhibition at 10 µM in assay [3] was determined as 35.2%. Besides, the “reduction in PK activity of HepG2 WT protein lysate” value with pyruvate kinase (PK) [4] is 10.7%. In addition, in the assay on HepG2 cells, the “TAG content (in words)” value is “reduced TAG content” and the “reduction in TAG/MTT ratio” value amounted to 15.6%.
As to `COc1cc2c(cc1OC)S(=O)(=O)N(Cc1ccc(F)cc1)c1cc(C(F)(F)F)ccc1-2` [SET-58, 6-(4-fluorobenzyl)-2,3-dimethoxy-8-(trifluoromethyl)-6H-dibenzo[c,e][1,2]thiazine 5,5-dioxide], the inhibition at 10 µM in assay [3] came out at 32.4%. Further, the “reduction in PK activity of HepG2 WT protein lysate” value in the assay on pyruvate kinase (PK) [4] stood at 33.8%. Besides, in the assay on HepG2 cells, the “TAG content (in words)” value is given as “reduced TAG content”.
Turning to `O=S1(=O)c2cc(O)c(O)cc2-c2ccc(C(F)(F)F)cc2N1Cc1ccc(F)cc1` [SET-59, 6-(4-fluorobenzyl)-2,2-dihydroxy-8-(trifluoromethyl)-6H-dibenzo[c,e][1,2]thiazine 5,5-dioxide], in assay [3], the “reduction in PK activity of HepG2 KO protein lysate” value is on record as 11.1%. For the same compound, in the assay with pyruvate kinase (PK) [4], the “reduction in PK activity of HepG2 WT protein lysate” value came out at 13.3%. The “TAG content (in words)” value with HepG2 cells is “reduced TAG content”.
Take `O=S(=O)(NCc1ccccc1)c1cc(O)c(O)cc1-c1ccc(C(F)(F)F)cc1` [SET-60, N-benzyl-4,5-dihydroxy-4'-(trifluoromethyl)-[1,1'-biphenyl]-2-sulfonamide]: the inhibition at 10 µM in assay [3] was 17.2%. Besides, in the assay on HepG2 cells, the “TAG content (in words)” value is on record as “reduced TAG content” and the “reduction in TAG/MTT ratio” value stood at 16.3%.
Consider `COc1cc2c(cc1OC)S(=O)(=O)N(Cc1ccccc1)c1cc(C(F)(F)F)ccc1-2` [SET-61, 6-benzyl-2,2-dimethoxy-8-(trifluoromethyl)-6H-dibenzo[c,e][1,2]thiazine 5,5-dioxide], for which, in assay [3], the “reduction in PK activity of HepG2 KO protein lysate” value came to 8.8%. Moreover, the “reduction in PK activity of HepG2 WT protein lysate” value in the assay with pyruvate kinase (PK) [4] was 11.7%.
Regarding `O=S(=O)(NCc1ccc(F)cc1)c1cc(O)c(O)cc1-c1ccc(O)cc1` [SET-66B, N-(4-fluorobenzyl)-4,4',5-trihydroxy-[1,1'-biphenyl]-2-sulfonamide], in assay [3], the “PK activity of HepG2 KO protein lysate (in words)” value is reported as “reduced the PK activity”. In addition, the “PK activity of HepG2 WT protein lysate (in words)” value in the assay on pyruvate kinase (PK) [4] is recorded as “reduced the PK activity”. Moreover, the “increase of the TAG/MTT ratio” value in the assay with HepG2 cells (5 µM for 1 week) was 6.0%.
As to `O=S(=O)(NCc1ccc(F)cc1)c1cc(O)c(O)cc1-c1cccc(O)c1` [SET-68B, N-(4-fluorobenzyl)-3',4,5-trihydroxy-[1,1'-biphenyl]-2-sulfonamide], the “PK activity of HepG2 KO protein lysate (in words)” value in assay [3] is given as “reduced the PK activity”. Further, the “PK activity of HepG2 WT protein lysate (in words)” value with pyruvate kinase (PK) [4] is recorded as “reduced the PK activity”.
On to `O=S1(=O)c2cc(O)c(O)cc2-c2cc(O)ccc2N1Cc1ccc(F)cc1` [SET-68D, 6-(4-fluorobenzyl)-2,3,9-trihydroxy-6H-dibenzo[c,e][1,2]thiazine 5,5-dioxide], for which the “PK activity of HepG2 WT protein lysate (in words)” value in the assay with pyruvate kinase (PK) [4] is on record as “highest inhibitory effect”.
As to `O=S(=O)(NCc1ccccc1)c1cc(O)c(O)cc1-c1cccc(O)c1` [SET-69B, N-benzyl-3',4,5-trihydroxy-[1,1'-biphenyl]-2-sulfonamide], the “PK activity of HepG2 KO protein lysate (in words)” value in assay [3] is listed as “reduced the PK activity”. For the same compound, the “PK activity of HepG2 WT protein lysate (in words)” value with pyruvate kinase (PK) [4] is reported as “reduced the PK activity”.
In the case of `O=S1(=O)c2cc(O)c(O)cc2-c2cc(O)ccc2N1Cc1ccccc1` [SET-69D, 6-benzyl-2,3,9-trihydroxy-6H-dibenzo[c,e][1,2]thiazine 5,5-dioxide], the “PK activity of HepG2 KO protein lysate (in words)” value in assay [3] was “reduced the PK activity”. Besides, the “PK activity of HepG2 WT protein lysate (in words)” value with pyruvate kinase (PK) [4] is on record as “reduced the PK activity”.
Turning to `Cn1c2cc([S+](C)[O-])sc2c2cnn(Cc3cccc(N)c3)c(=O)c21` (stereo not shown) [TEPP46, reference compound], the “effect on PK activity in HepG2 WT cells (in words)” value with pyruvate kinase (PK) [2] is “increased activity”.
